Test: gradient 5% acetonitrile 3 min, to 50% in 2 min, to 85% in 15 min, held 3 min, 100 µL/min
Conditions: column: Zorbax Extend-C18 2.1 x 50 mm; eluents: water / acetonitrile, 0.1% formic acid
How it was run: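 Using water and acetonitrile that each contained 0.1% formic acid, mixtures of ~100 pure standards were separated at 100 μL/min on a Zorbax Extend-C18 column (2.1 × 50 mm, 1.8 μm). The HPLC fed a quadrupole time-of-flight mass spectrometer working in positive and negative ionization mode, with dead and dwell volumes of 40 μL and 900 μL. Data were acquired over 3 months. Retention time was read from computationally picked adduct peaks after manual inspection of each.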

Row | RP-LC retention time | SMILES
1 | 864 s | O=C(Cc1ccc(F)cc1)N1CCN(C(=O)c2nnn3c2COC(c2ccccc2)C3)CC1 (stereo not given)
2 | 584 s | COc1ccc(CN2CCc3nc(N4CCN(c5ncccn5)CC4)ncc3C2)cc1
3 | 998 s | CCc1ccc(S(=O)(=O)N2C[C@@H](F)C[C@H]2C(=O)N2CCc3ccccc3C2)cc1
4 | 662 s | COc1ccc(N2CCN(C3CC(=O)N(Cc4ccc(N5CCCC5=O)cc4)C3=O)CC2)cc1 (stereo not given)
5 | 610 s | CCN1CCN(CC2CCN(S(=O)(=O)Cc3ccc(Cl)cc3)CC2)CC1
6 | 895 s | COC[C@@H]1CN(S(=O)(=O)c2ccc(C(C)C)cc2)C[C@H]1c1ccccn1
7 | 813 s | Cn1c(=O)sc2cc(S(=O)(=O)N3CCC(C(=O)NCCc4cccs4)CC3)ccc21
8 | 1100 s | CCCc1ccc(S(=O)(=O)N2CCC(n3cnc4ccc(C)cc4c3=O)CC2)cc1
9 | 775 s | CCc1ccc(S(=O)(=O)N2CCC3(CC2)NCCN=C3NCc2cccc(OC)c2)cc1
10 | 881 s | COc1ccc(C(=O)Nc2nc(-c3ccc4c(c3)NC(=O)CO4)c(C)s2)cc1
11 | 688 s | COc1ccc(CN2CC3(CCN(S(=O)(=O)c4cn(C)cn4)CC3)C2=O)cc1
12 | 748 s | COc1ccc(N2CCN(C(=O)c3[nH]c(C)c(S(=O)(=O)N4CCCC4)c3C)CC2)cc1
13 | 1130 s | CC(C)n1cc(C2=CCN(S(=O)(=O)Cc3ccc(Cl)cc3)CC2)c2cccnc21
14 | 1120 s | Cc1ccc(-c2noc(-c3cccc(S(=O)(=O)N4CCOCC4)c3)n2)cc1
15 | 998 s | Cc1ccc(CNC(=O)C2CCN(S(=O)(=O)c3cc(-c4noc(C5CC5)n4)cs3)CC2)cc1
16 | 618 s | COc1ccc(C(=O)N2CCc3ccc(C(=O)NC4CCN(C)CC4)cc32)cc1
17 | 574 s | CC1CCN(c2ccc(CNc3nc4ccncc4n(C(C)C)c3=O)cc2)CC1
18 | 1120 s | Cc1ccccc1Oc1nccnc1N1CCCC(C(=O)NCc2cccc(C(F)(F)F)c2)C1 (stereo not given)
19 | 1070 s | O=C(NC1CCCCCCC1)c1nnc(-c2ccc(S(=O)(=O)N3CCCC3)cc2)o1
20 | 753 s | CC(C)n1cnc(S(=O)(=O)N2CCC(C(=O)Nc3cccc(-c4ccno4)c3)CC2)c1

Second part, the compound before the results:

Row | SMILES | RP-LC retention time
21 | CCCCn1c(=O)c2ccccc2n(Cc2nc(-c3ccccc3Cl)no2)c1=O | 1160 s
22 | O=C(C1=COCCO1)N1CCN(c2ccccc2)CC1 | 694 s
23 | Cc1ccc(CN2CCC(CNC(=O)Cn3ccc4c(=O)n(C)c(=O)n(C)c43)CC2)cc1 | 601 s
24 | O=C(Nc1ccc(Cn2cnc(C(=O)NCc3ccc(F)cc3)c2)cc1)c1cccc(F)c1 | 769 s
25 | Cc1ccc(-n2ncc3c(N4CCN(C)CC4)ncnc32)cc1C | 648 s
26 | Cc1ccc(NC(=O)Nc2nccn(-c3ccc(F)cc3)c2=O)cc1C | 1020 s
27 | CCNC(=O)[C@H]1O[C@@H](n2cnc3c(N)nc(NCCc4ccc(CCC(=O)O)cc4)nc32)C(O)[C@H]1O (stereo not given in full) | 503 s
28 | Cc1ccc(NC(=O)Cn2cccc2-c2nnc(C3CCC3)o2)cc1F | 973 s
29 | O=C(NC1CCCCCCC1)C1CCN(C(=O)c2cccn2-c2cccnc2)CC1 | 797 s
30 | CCCCN1C(=O)C(C)(C(=O)Nc2ccc(F)cc2F)Oc2cccnc21 (stereo not given) | 1050 s
31 | Cc1cc(C)c(NC(=O)Cn2cc3c(n2)CCCC3)c(C)c1 | 969 s
32 | O=C(c1ccccc1Cl)N1CCN(Cc2noc3ccccc23)CC1 | 755 s
33 | O=C(Cn1nc2c3cc(-c4ccccc4)nn3ccn2c1=O)Nc1cccc(Br)c1 | 952 s
34 | Cc1nnc(C2CCCCCN2C(=O)c2cn[nH]c2)o1 (stereo not given) | 597 s
35 | CC(C)N1CCN(C(=O)C2CC(=O)N(c3ccc4c(c3)CCN4C(=O)C3CC3)C2)CC1 (stereo not given) | 579 s
36 | O=C(Nc1cc(F)cc(F)c1)Nc1cccc(-c2nccnc2N2CCOCC2)c1 | 940 s
37 | Cc1ccc(C)c(-c2csc3c(=O)n(CC(=O)OC(C)(C)C)cnc23)c1 | 1110 s
38 | COc1cc(C(=O)NCCc2csc(-c3ccc(Cl)cc3)n2)c([N+](=O)[O-])cc1OC | 895 s
39 | CCN(CC)Cc1ccc2c(c1)CN(C(=O)NC1CCCC1)CCO2 | 558 s
40 | CCCc1nc(-c2ccccc2)oc1CC(=O)Nc1ccc(Cl)cc1C | 1090 s
41 | COc1ccc(OC)c(N2C=C(C#N)S(=O)(=O)c3ccc(F)cc32)c1 | 921 s
42 | Cc1nn(-c2ccccc2)c(C)c1S(=O)(=O)N1CCC(C(=O)NC2CCCCCC2)CC1 | 965 s
43 | Cc1ccc(CN2C[C@@H](CO)[C@H](c3nc(-c4cccnc4)no3)C2)o1 | 596 s

Row | SMILES | RP-LC retention time
44 | CC(=O)N1CCC(C(=O)N2CCCCCCNC(=O)[C@@H]3CCCC[C@@H]32)CC1 | 657 s
45 | Cc1ccc(-c2csc(NC(=O)COc3ccc(Cl)cc3Cl)n2)cc1 | 1180 s
46 | CC(C)c1ccc(NC(=O)CC2COc3ccccc3NC2=O)cc1 (stereo not given) | 872 s
47 | COCC(C)NC(=O)CN1c2ccc(F)cc2-c2ccccc2S1(=O)=O (stereo not given) | 785 s
48 | O=C(c1cccc(F)c1)N1CCC2(CC1)N=C(c1ccccc1)NO2 | 739 s
49 | O=C1c2ccccc2C(=O)c2nc(-c3ccccc3)c(-c3ccccc3)nc21 | 1030 s
50 | CCNC(=O)N1CCCC(c2cccc(C(=O)NCC3CCCCC3)c2)C1 (stereo not given) | 891 s
51 | Cc1cccc(-c2nnc(Cc3nc(-c4ccc5c(c4)OCO5)no3)o2)c1 | 1010 s
52 | Cc1ccc(CNC(=O)c2cn(-c3ccc(NC(=O)C4CC4)cn3)cn2)cc1C | 818 s
53 | CC(C)n1cnnc1CC1CN(C(=O)Nc2cc(F)cc(F)c2)C1 | 667 s
54 | CN1C(=O)c2cc(C(=O)N3CCCCCC3)nn2CC1(C)C(=O)NC1CCCCCC1 (stereo not given) | 802 s
55 | Cc1cc(C)cc(NC(=O)Cn2ccc3ccc(-c4nnc(C)o4)cc32)c1 | 1300 s
56 | COCCn1cc(CCNC(=O)Nc2cc(Cl)ccc2C)c2cccnc21 | 795 s
57 | Brc1ccc([C@H]2CN3CCSC3=N2)cc1 | 645 s
58 | COc1ccc(-c2ccnn2-c2ccc(SCC(=O)Nc3cc(C)ccc3C)nn2)cc1 | 1140 s
59 | O=C(NCc1ccc(F)cc1)c1ccnc(N2CCNC(c3ccccc3)C2)c1 (stereo not given) | 635 s
60 | CN(C)c1ccc(-c2nc3cnccn3c2Nc2ccc(Cl)cc2)cc1 | 880 s
61 | Cc1ccccc1Cn1cc(-c2ccncc2)cc1C(=O)N1CCN(C2CCCCC2)CC1 | 586 s
62 | Cc1cc(C)cc(NC(=O)c2c(O)c3cccnc3n(-c3ccccc3)c2=O)c1 | 1430 s
63 | CN1c2cc(C(=O)N3CCN(c4ccccn4)CC3)ccc2C(=O)N2CCCCC21 (stereo not given) | 588 s
64 | CN1c2ccccc2C(=O)NC12CCN(C(=O)c1ccc(F)c(F)c1)CC2 | 746 s
65 | Cc1nnc(CNC(=O)C(=O)Nc2ccon2)o1 | 534 s

From the METLIN SMRT retention time set (Domingo-Almenara et al. 2019)
